According to patent US20230157952A1, “METHOD FOR IMPROVING THE STABILITY OF A PHARMACEUTICAL COMPOSITION COMPRISING A HIGH PENETRATION DRUG, AND THE PHARMACEUTICAL COMPOSITION OBTAINED THEREFROM” (Techfields Inc., priority 2020, published 2023):
Each block holds one compound with its values, some of them ahead of it.

Assays:
[1] = Effect of temperature (and pH) on the stability of the solution (purity); format: physicochemical; details: 7% solution in water
[2] = Effect of concentration on the stability of the solution (purity over time); details: in water at 25° C.

Structure (SMILES): CCN(CC)CCOC(=O)Cc1ccc(C(=O)c2ccc(C)cc2)n1C.Cl [2-(diethylamino)ethyl 1-methyl-5-(4-methylbenzoyl)-1H-pyrrole-2-acetate•HCl]
- Stability of the solution at a temperature higher than 40° C. and a pH lower than 3 or greater than 6 [1]: not stable
- Purity at Day 3 ([2]; 0.01 wt %): 82.3%
- Purity at Day 7 ([2]; 0.01 wt %): 72.2%
- Purity at Day 14 ([2]; 0.01 wt %): 57.4%
- Purity at Day 21 ([2]; 0.01 wt %): 45.4%
- Purity at Day 28 ([2]; 0.01 wt %): 35.7%
- Purity at hr 0 ([2]; 0.01 wt %): 97.4%
- Purity at Day 3 ([2]; 0.1 wt %): 95.6%
- Purity at Day 7 ([2]; 0.1 wt %): 93.3%
- Purity at Day 14 ([2]; 0.1 wt %): 88.3%
- Purity at Day 21 ([2]; 0.1 wt %): 83.5%
- Purity at Day 28 ([2]; 0.1 wt %): 78.1%
- Purity at hr 0 ([2]; 0.1 wt %): 97.5%
- Purity at Day 3 ([2]; 1 wt %): 95.7%
- Purity at Day 7 ([2]; 1 wt %): 94.6%
- Purity at Day 14 ([2]; 1 wt %): 92.3%
- Purity at Day 21 ([2]; 1 wt %): 90.1%
- Purity at Day 28 ([2]; 1 wt %): 88.6%
- Purity at hr 0 ([2]; 1 wt %): 97.7%
- Purity at Day 3 ([2]; 3 wt %): 96.5%
- Purity at Day 7 ([2]; 3 wt %): 96.2%
- Purity at Day 14 ([2]; 3 wt %): 94.8%
- Purity at Day 21 ([2]; 3 wt %): 94.0%
- Purity at Day 28 ([2]; 3 wt %): 92.7%
- Purity at hr 0 ([2]; 3 wt %): 97.9%
- Purity at Day 3 ([2]; 5 wt %): 97.2%
- Purity at Day 7 ([2]; 5 wt %): 97.0%
- Purity at Day 14 ([2]; 5 wt %): 96.8%
- Purity at Day 21 ([2]; 5 wt %): 95.6%
- Purity at Day 28 ([2]; 5 wt %): 94.4%
- Purity at hr 0 ([2]; 5 wt %): 97.9%
- Purity at Day 3 ([2]; 7 wt %): 97.5%
- Purity at Day 7 ([2]; 7 wt %): 97.2%
- Purity at Day 14 ([2]; 7 wt %): 97.2%
- Purity at Day 21 ([2]; 7 wt %): 96.7%
- Purity at Day 28 ([2]; 7 wt %): 96.5%
- Purity at hr 0 ([2]; 7 wt %): 98.1%
- Purity at Day 3 ([2]; 8 wt %): 97.7%
- Purity at Day 7 ([2]; 8 wt %): 97.3%
- Purity at Day 14 ([2]; 8 wt %): 96.9%
- Purity at Day 21 ([2]; 8 wt %): 96.9%
- Purity at Day 28 ([2]; 8 wt %): 96.6%
- Purity at hr 0 ([2]; 8 wt %): 98.1%
- Purity at Day 3 ([2]; 10 wt %): 97.9%
- Purity at Day 7 ([2]; 10 wt %): 97.5%
- Purity at Day 14 ([2]; 10 wt %): 97.3%
- Purity at Day 21 ([2]; 10 wt %): 97.1%
- Purity at Day 28 ([2]; 10 wt %): 96.5%
- Purity at hr 0 ([2]; 10 wt %): 98.2%
- Purity at Day 3 ([2]; 15 wt %): 97.7%
- Purity at Day 7 ([2]; 15 wt %): 97.6%
- Purity at Day 14 ([2]; 15 wt %): 97.4%
- Purity at Day 21 ([2]; 15 wt %): 97.1%
- Purity at Day 28 ([2]; 15 wt %): 96.8%
- Purity at hr 0 ([2]; 15 wt %): 98.1%
- Purity at Day 3 ([2]; 20 wt %): 97.6%
- Purity at Day 7 ([2]; 20 wt %): 97.5%
- Purity at Day 14 ([2]; 20 wt %): 97.2%
- Purity at Day 21 ([2]; 20 wt %): 97.1%
- Purity at Day 28 ([2]; 20 wt %): 96.8%
- Purity at hr 0 ([2]; 20 wt %): 98.0%
- Purity at Day 3 ([2]; 30 wt %): 97.7%
- Purity at Day 7 ([2]; 30 wt %): 97.5%
- Purity at Day 14 ([2]; 30 wt %): 97.3%
- Purity at Day 21 ([2]; 30 wt %): 97.0%
- Purity at Day 28 ([2]; 30 wt %): 96.7%
- Purity at hr 0 ([2]; 30 wt %): 98.1%
- Purity at Day 3 ([2]; 50 wt %): 97.8%
- Purity at Day 7 ([2]; 50 wt %): 97.5%
- Purity at Day 14 ([2]; 50 wt %): 97.2%
- Purity at Day 21 ([2]; 50 wt %): 96.9%
- Purity at Day 28 ([2]; 50 wt %): 96.8%
- Purity at hr 0 ([2]; 50 wt %): 98.2%
- Stability when the concentration is 0.1% or lower [2]: not stable

- Purity(%) at day 0 ([1]; pH 1.0, day 0): 97.2 ± 0.3%
- Purity(%) at day 21 (5° C.) ([1]; pH 1.0, day 21, 5° C.): 91.1 ± 0.4%
- Purity(%) at day 21 (25° C.) ([1]; pH 1.0, day 21, 25° C.): 67.5 ± 0.4%
- Purity(%) at day 21 (40° C.) ([1]; pH 1.0, day 21, 40° C.): 10.4 ± 0.4%
- Purity (%) at day 21 (60° C.) ([1]; pH 1.0, day 21, 60° C.): 0%
- Purity(%) at day 0 ([1]; pH 2.0, day 0): 97.3 ± 0.3%
- Purity(%) at day 21 (5° C.) ([1]; pH 2.0, day 21, 5° C.): 94.7 ± 0.3%
- Purity(%) at day 21 (25° C.) ([1]; pH 2.0, day 21, 25° C.): 81.1 ± 0.3%
- Purity(%) at day 21 (40° C.) ([1]; pH 2.0, day 21, 40° C.): 23.6 ± 0.3%
- Purity (%) at day 21 (60° C.) ([1]; pH 2.0, day 21, 60° C.): 0%
- Purity(%) at day 0 ([1]; pH 3.0, day 0): 97.6 ± 0.2%
- Purity(%) at day 21 (5° C.) ([1]; pH 3.0, day 21, 5° C.): 96.3 ± 0.2%
- Purity(%) at day 21 (25° C.) ([1]; pH 3.0, day 21, 25° C.): 92.2 ± 0.2%
- Purity(%) at day 21 (40° C.) ([1]; pH 3.0, day 21, 40° C.): 45.7 ± 0.3%
- Purity (%) at day 21 (60° C.) ([1]; pH 3.0, day 21, 60° C.): 0%
- Purity(%) at day 0 ([1]; pH 3.7, day 0): 97.6 ± 0.2%
- Purity(%) at day 21 (5° C.) ([1]; pH 3.7, day 21, 5° C.): 97.3 ± 0.2%
- Purity(%) at day 21 (25° C.) ([1]; pH 3.7, day 21, 25° C.): 96.8 ± 0.2%
- Purity(%) at day 21 (40° C.) ([1]; pH 3.7, day 21, 40° C.): 55.5 ± 0.2%
- Purity (%) at day 21 (60° C.) ([1]; pH 3.7, day 21, 60° C.): 13.5 ± 0.3%
- Purity(%) at day 0 ([1]; pH 4.0, day 0): 97.9 ± 0.1%
- Purity(%) at day 21 (5° C.) ([1]; pH 4.0, day 21, 5° C.): 97.4 ± 0.1%
- Purity(%) at day 21 (25° C.) ([1]; pH 4.0, day 21, 25° C.): 96.9 ± 0.1%
- Purity(%) at day 21 (40° C.) ([1]; pH 4.0, day 21, 40° C.): 60.3 ± 0.2%
- Purity (%) at day 21 (60° C.) ([1]; pH 4.0, day 21, 60° C.): 19.7 ± 0.3%
- Purity(%) at day 0 ([1]; pH 4.3, day 0): 97.7 ± 0.2%
- Purity(%) at day 21 (5° C.) ([1]; pH 4.3, day 21, 5° C.): 97.3 ± 0.1%
- Purity(%) at day 21 (25° C.) ([1]; pH 4.3, day 21, 25° C.): 96.7 ± 0.1%
- Purity(%) at day 21 (40° C.) ([1]; pH 4.3, day 21, 40° C.): 63.1 ± 0.1%
- Purity (%) at day 21 (60° C.) ([1]; pH 4.3, day 21, 60° C.): 16.8 ± 0.2%
- Purity(%) at day 0 ([1]; pH 4.6, day 0): 97.8 ± 0.1%
- Purity(%) at day 21 (5° C.) ([1]; pH 4.6, day 21, 5° C.): 97.3 ± 0.2%
- Purity(%) at day 21 (25° C.) ([1]; pH 4.6, day 21, 25° C.): 95.9 ± 0.2%
- Purity(%) at day 21 (40° C.) ([1]; pH 4.6, day 21, 40° C.): 57.3 ± 0.2%
- Purity (%) at day 21 (60° C.) ([1]; pH 4.6, day 21, 60° C.): 15.5 ± 0.3%
- Purity(%) at day 0 ([1]; pH 5.0, day 0): 97.7 ± 0.3%
- Purity(%) at day 21 (5° C.) ([1]; pH 5.0, day 21, 5° C.): 96.1 ± 0.2%
- Purity(%) at day 21 (25° C.) ([1]; pH 5.0, day 21, 25° C.): 93.9 ± 0.3%
- Purity(%) at day 21 (40° C.) ([1]; pH 5.0, day 21, 40° C.): 38.9 ± 0.3%
- Purity (%) at day 21 (60° C.) ([1]; pH 5.0, day 21, 60° C.): 1.5 ± 0.3%
- Purity(%) at day 0 ([1]; pH 6.0, day 0): 97.5 ± 0.3%
- Purity(%) at day 21 (5° C.) ([1]; pH 6.0, day 21, 5° C.): 94.4 ± 0.3%
- Purity(%) at day 21 (25° C.) ([1]; pH 6.0, day 21, 25° C.): 88.9 ± 0.2%
- Purity(%) at day 21 (40° C.) ([1]; pH 6.0, day 21, 40° C.): 21.6 ± 0.2%
- Purity (%) at day 21 (60° C.) ([1]; pH 6.0, day 21, 60° C.): 0%
- Purity(%) at day 0 ([1]; pH 7.0, day 0): 97.3 ± 0.3%
- Purity(%) at day 21 (5° C.) ([1]; pH 7.0, day 21, 5° C.): 89.0 ± 0.3%
- Purity(%) at day 21 (25° C.) ([1]; pH 7.0, day 21, 25° C.): 59.8 ± 0.3%
- Purity(%) at day 21 (40° C.) ([1]; pH 7.0, day 21, 40° C.): 5.4 ± 0.3%
- Purity (%) at day 21 (60° C.) ([1]; pH 7.0, day 21, 60° C.): 0%
- Purity(%) at day 0 ([1]; pH 8.0, day 0): 96.9 ± 0.4%
- Purity(%) at day 21 (5° C.) ([1]; pH 8.0, day 21, 5° C.): 77.1 ± 0.3%
- Purity(%) at day 21 (25° C.) ([1]; pH 8.0, day 21, 25° C.): 44.5 ± 0.4%
- Purity(%) at day 21 (40° C.) ([1]; pH 8.0, day 21, 40° C.): 0%
- Purity (%) at day 21 (60° C.) ([1]; pH 8.0, day 21, 60° C.): 0%
Structure (SMILES): CCN(CC)CCOC(=O)CC1=C(C)C(=Cc2ccc([S+](C)[O-])cc2)c2ccc(F)cc21.Cl (stereo not drawn)
